Assay results reported in patent US7462600B2, “Macrolides” (Pfizer Inc, priority 2004, dated 2008).
Values after ≈ are worked out from the molar mass of the structure shown.

Experiments:
Format in all cases: cell-based
[1] = system: Streptococcus pneumoniae 1016; test: MIC, microtiter broth dilution (NCCLS M100-S14), S. pneumoniae 1016 (susceptible); conditions: Streptococcus pneumoniae 1016
Outline: (§1)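 Stock solutions of 40 mg/ml in DMSO were used. MIC values came from microtiter-tray broth dilution following NCCLS M100-S14 guidelines.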

[2] = system: Streptococcus pyogenes 1079; test: MIC, microtiter broth dilution (NCCLS M100-S14), S. pyogenes 1079 (ermB); conditions: Streptococcus pyogenes 1079
Outline: as §1

[3] = system: Streptococcus pneumoniae 1175; conditions: Streptococcus pneumoniae 1175; microtiter broth dilution
Outline: as §1

[4] = system: Streptococcus pneumoniae 1095; conditions: Streptococcus pneumoniae 1095; microtiter broth dilution
Outline: as §1

[5] = system: Haemophilus influenzae 1218; test: MIC, microtiter broth dilution (NCCLS M100-S14), H. influenzae 1218 (susceptible); conditions: Haemophilus influenzae 1218
Outline: as §1

| Compound | MIC S. pneumo. 1016 [1] [µg/mL] | MIC S. pyogenes 1079 [2] [µg/mL] | MIC S. pneumo. 1175 [3] [µg/mL] | MIC S. pneumo. 1095 [4] [µg/mL] | MIC H. influenzae 1218 [5] [µg/mL] |
| --- | --- | --- | --- | --- | --- |
| CCC1OC(=O)C(C)C(=O)C(C)C(OC2OC(C)CC(N(C)C)C2O)C(C)(OC)CC(C)C(=O)C(C)C2N(C3CN(S(=O)(=O)c4ccc(-n5nccn5)cc4)C3)C(=O)OC12C (centres unmarked) [Example 3.55, 3-descladinosyl-11,12-dideoxy-4-O-methyl-3-oxo-12,11-(oxycarbonyl-(1-(4-(2H-1,2,3-triazol-2-yl)benzenesulfonyl)-azetidin-3-yl)-imino)erythromycin A] | <0.06 | <0.06 | <0.06 | <0.06 | 1 (≈ 1.14 µM) |
| CCC1OC(=O)C(C)C(=O)C(C)C(OC2OC(C)CC(N(C)C)C2O)C(C)(OC)CC(C)C(=O)C(C)C2N(C3CN(S(=O)(=O)c4ccc(-c5nnco5)cc4)C3)C(=O)OC12C (centres unmarked) [Example 3.56, 3-descladinosyl-11,12-dideoxy-6-O-methyl-3-oxo-12,11-(oxycarbonyl-(1-(4-(1,3,4-oxadiazol-2-yl)benzenesulfonyl)-azetidin-3-yl)-imino)-erythromycin A] | <0.06 | 0.5 (≈ 0.571 µM) | <0.06 | <0.06 | 1 (≈ 1.14 µM) |
| CCC1OC(=O)C(C)C(=O)C(C)C(OC2OC(C)CC(N(C)C)C2O)C(C)(OC)CC(C)C(=O)C(C)C2N(C3CN(S(=O)(=O)c4ccc5nn[nH]c5c4)C3)C(=O)OC12C (centres unmarked) [Example 3.57] | <0.06 | 4 (≈ 4.71 µM) | 8 (≈ 9.42 µM) | <0.06 | 1 (≈ 1.18 µM) |
| CCC1OC(=O)C(C)C(=O)C(C)C(OC2OC(C)CC(N(C)C)C2O)C(C)(OC)CC(C)C(=O)C(C)C2N(C3CN(S(=O)(=O)c4cccc(-n5cccn5)c4)C3)C(=O)OC12C (centres unmarked) [Example 3.58, 3-descladinosyl-11,12-dideoxy-6-O-methyl-3-oxo-12,11-(oxycarbonyl-(1-(3-(1H-pyrazol-1-yl)benzenesulfonyl)-azetidin-3-yl)-imino)-erythromycin A] | <0.06 | 4 (≈ 4.58 µM) | <0.06 | <0.06 | 1 (≈ 1.14 µM) |
| CCC1OC(=O)C(C)C(=O)C(C)C(OC2OC(C)CC(N(C)C)C2O)C(C)(OC)CC(C)C(=O)C(C)C2N(C3CN(S(=O)(=O)c4cccc(-c5ncno5)c4)C3)C(=O)OC12C (centres unmarked) [Example 3.59] | <0.06 | 64 (≈ 73.1 µM) | 8 (≈ 9.13 µM) | 8 (≈ 9.13 µM) | 16 (≈ 18.3 µM) |
| CCC1OC(=O)C(C)C(=O)C(C)C(OC2OC(C)CC(N(C)C)C2O)C(C)(OC)CC(C)C(=O)C(C)C2N(C3CN(S(=O)(=O)c4cccc(-c5nnc(C)o5)c4)C3)C(=O)OC12C (centres unmarked) [Example 3.60, 3-descladinosyl-11,12-dideoxy-6-O-methyl-3-oxo-12,11-(oxycarbonyl-(1-(3-(5-methyl-1,3,4-oxadiazol-2-yl)benzenesulfonyl)-azetidin-3-yl)imino)erythromycin A] | <0.06 | 4 (≈ 4.49 µM) | 0.12 (≈ 0.135 µM) | <0.06 | 2 (≈ 2.25 µM) |
| CCC1OC(=O)C(C)C(=O)C(C)C(OC2OC(C)CC(N(C)C)C2O)C(C)(OC)CC(C)C(=O)C(C)C2N(C3CN(S(=O)(=O)c4ccc(-c5nnc(C)o5)cc4)C3)C(=O)OC12C (centres unmarked) [Example 3.61, 3-descladinosyl-11,12-dideoxy-4-O-methyl-3-oxo-12,11-(oxycarbonyl-(1-(4-(5-methyl-1,3,4-oxadiazol-2-yl)benzenesulfonyl)-azetidin-3-yl)-imino)-erythromycin A] | <0.06 | 2 (≈ 2.25 µM) | 0.12 (≈ 0.135 µM) | 2 (≈ 2.25 µM) | 2 (≈ 2.25 µM) |
| CCC1OC(=O)C(C)C(=O)C(C)C(OC2OC(C)CC(N(C)C)C2O)C(C)(OC)CC(C)C(=O)C(C)C2N(C3CN(S(=O)(=O)c4cccc(-c5nnco5)c4)C3)C(=O)OC12C (centres unmarked) [Example 3.62, 3-descladinosyl-11,12-dideoxy-6-O-methyl-3-oxo-12,11-(oxycarbonyl-(1-(3-(1,3,4-oxadiazol-2-yl)benzenesulfonyl)-azetidin-3-yl)-imino)erythromycin A] | <0.06 | 8 (≈ 9.13 µM) | 0.5 (≈ 0.571 µM) | <0.06 | 2 (≈ 2.28 µM) |
| CCC1OC(=O)C(C)C(=O)C(C)C(OC2OC(C)CC(N(C)C)C2O)C(C)(OC)CC(C)C(=O)C(C)C2N(C3CN(S(=O)(=O)c4cccc(-c5csnn5)c4)C3)C(=O)OC12C (centres unmarked) [Example 3.63, 3-descladinosy-11,12-dideoxy-6-O-methyl-3-oxo-12,11-(oxycarbonyl-(1-(3-(1,2,3-thiadiazol-4-yl)benzenesulfonyl)-azetidin-3-yl)-imino)-erythromycin A] | <0.06 | 0.25 (≈ 0.28 µM) | <0.06 | <0.06 | <0.06 |
| CCC1OC(=O)C(C)C(=O)C(C)C(OC2OC(C)CC(N(C)C)C2O)C(C)(OC)CC(C)C(=O)C(C)C2N(C3CN(S(=O)(=O)c4ccc(-n5ccnc5)c(C#N)c4)C3)C(=O)OC12C (centres unmarked) [Example 3.64] | <0.06 | 32 (≈ 35.6 µM) | <0.06 | <0.06 | 0.5 (≈ 0.556 µM) |
| CCC1OC(=O)C(C)C(=O)C(C)C(OC2OC(C)CC(N(C)C)C2O)C(C)(OC)CC(C)C(=O)C(C)C2N(C3CN(S(=O)(=O)c4cccc(-c5ncco5)c4)C3)C(=O)OC12C (centres unmarked) [Example 3.65, 3-descladinosyl-11,12-dideoxy-6-O-methyl-3-oxo-12,11-(oxycarbonyl-(1-(3-(oxazol-2-yl)benzenesulfonyl)-azetidin-3-yl)-imino)-erythromycin A] | <0.06 | 1 (≈ 1.14 µM) | <0.06 | <0.06 | 0.12 (≈ 0.137 µM) |
| CCC1OC(=O)C(C)C(=O)C(C)C(OC2OC(C)CC(N(C)C)C2O)C(C)(OC)CC(C)C(=O)C(C)C2N(C3CN(S(=O)(=O)c4cccc(-c5cccnn5)c4)C3)C(=O)OC12C (centres unmarked) [Example 3.72, 3-descladinosyl-11,12-dideoxy-4-O-methyl-3-oxo-12,11-(oxycarbonyl-(1-(3-(pyridazin-3-yl)benzenesulfonyl)-azetidin-3-yl)-imino)erythromycin A] | <0.06 | 1 (≈ 1.13 µM) | <0.06 | <0.06 | 1 (≈ 1.13 µM) |
| CCC1OC(=O)C(C)C(=O)C(C)C(OC2OC(C)CC(N(C)C)C2O)C(C)(OC)CC(C)C(=O)C(C)C2N(C3CN(S(=O)(=O)c4cncc(-c5cnco5)c4)C3)C(=O)OC12C (centres unmarked) [Example 3.75] | <0.06 | 16 (≈ 18.3 µM) | <0.06 | <0.06 | 1 (≈ 1.14 µM) |
| CCC1OC(=O)C(C)C(=O)C(C)C(OC2OC(C)CC(N(C)C)C2O)C(C)(OC)CC(C)C(=O)C(C)C2N(C3CN(S(=O)(=O)c4ccc(-c5nncs5)cc4)C3)C(=O)OC12C (centres unmarked) [Example 3.76, 3-descladinosyl-11,12-dideoxy-6-O-methyl-3-oxo-12,11-(oxycarbonyl-(1-(4-(1,3,4-thiadiazol-2-yl)benzenesulfonyl)-azetidin-3-yl)-imino)-erythromycin A] | <0.06 | 0.12 (≈ 0.135 µM) | <0.06 | <0.06 | 0.5 (≈ 0.56 µM) |
| CCC1OC(=O)C(C)C(=O)C(C)C(OC2OC(C)CC(N(C)C)C2O)C(C)(OC)CC(C)C(=O)C(C)C2N(C3CN(S(=O)(=O)c4ccc(F)c(C#N)c4)C3)C(=O)OC12C (centres unmarked) [Example 3.77, 3-descladinosyl-11,12-dideoxy-6-O-methyl-3-oxo-12,11-(oxycarbonyl-(1-(3-cyano-4-fluorobenzenesulfonyl)-azetidin-3-yl)-imino)-erythromycin A] | <0.06 | 8 (≈ 9.4 µM) | <0.06 | <0.06 | 1 (≈ 1.18 µM) |
| CCC1OC(=O)C(C)C(=O)C(C)C(OC2OC(C)CC(N(C)C)C2O)C(C)(OC)CC(C)C(=O)C(C)C2N(C3CN(S(=O)(=O)c4ccc(-c5ccc(Cl)nn5)cc4)C3)C(=O)OC12C (centres unmarked) [Example 3.78] | <0.06 | 64 (≈ 69.5 µM) | <0.06 | <0.06 | 4 (≈ 4.35 µM) |
